pEC50: −log10 of the molar value.

The test system of the first assay is HCV genotype 1b replicon. Description: HCV replicon assay, genotype 1b. The class given is cell-based, hepatitis C virus. The note with it: Hepatitis C virus; genotype 1b replicon cells, 24 to 72 hours incubation, luciferase activity. As to the method: The HCV replicons and NS5A inhibitory activity of the present compounds may be tested using assays known in the art. HCV inhibitors, such as those described in the Examples herein have activities in genotype 1b, 2a and 1a replicon assays of from about 1 pM to about 1 μM. The assay is performed by incubating a replicon harboring cell-line in the presence of inhibitor for a set period of time and measuring the effect of the inhibitor on HCV replicon replication either directly by quantifying replicon RNA level, or indirectly by measuring enzymatic activity of a co-encoded reporter enzyme such as luciferase or β-lactamase. By performing a series of such measurements at different inhibitor concentrations, the effective inhibitory concentration of the inhibitor (EC50 or EC90) is determined. See Jan M. Vrolijk et al., A replicons-based bioassay for the measurement of interferons in patients with chronic hepatitis C, 110 J. VIROLOGICAL METHODS 201 (2003). Such assays may also be run in an automated format for high through-put screening. See Paul Zuck et al., A cell-based β-lactamase reporter gene assay for the identification of inhibitors of hepatitis C virus replication, 334 ANALYTICAL BIOCHEMISTRY 344 (2004).
Measurement of inhibition by compounds was performed using the HCV replicon system. Several different replicons encoding different HCV genotypes or mutations were used. In addition, potency measurements were made using different formats of the replicon assay, including different ways of measurements and different plating formats. See Jan M. Vrolijk et al., A replicons-based bioassay for the measurement of interferons in patients with chronic hepatitis C, 110 J. VIROLOGICAL METHODS 201 (2003); Steven S. Carroll et al., Inhibition of Hepatitis C Virus RNA Replication by 2′-Modified Nucleoside Analogs, 278(14) J. BIOLOGICAL CHEMISTRY 11979 (2003). However, the underlying principles are common to all of these determinations, and are outlined below.
Stable neomycin phosphotransferase encoding replicon-harboring cell lines were used, so all cell lines were maintained under G418 selection prior to the assay. In some cases, the cell lines encoded a luciferase:Neor fusion and could be assayed either directly by determination of RNA copy number, or indirectly through measurement of the luciferase activity.
To initiate an assay, replicon cells were plated in the presence of a dilution series of test compound in the absence of G418. Typically, the assays were performed in a 96-well plate format for manual operation, or a 384-well plate in an automated assay. Replicon cells and compound were incubated for 24 to 72 hours. At the end of the assay, cells are washed free of media and compound and then lysed. Luciferase activity was measured using a conventional luciferase assay. EC50 determinations were calculated as a percent of a DMSO control by fitting the data to a four parameter fit function.
The activity table below provides representative data illustrating observed activity against genotype 1b.
Turning to `N#Cc1c(-c2ccc(NC(=O)[C@@H]3CCCN3C(=O)Cc3ccccc3)cc2)[nH]c2ccc(NC(=O)[C@@H]3CCCN3C(=O)Cc3ccccc3)cc12` [Example 155, (2S)—N-{4-[3-cyano-5-({[(2S)-1-(phenylacetyl)pyrrolidin-2-yl]carbonyl}amino)-1H-indol-2-yl]phenyl}-1-(phenylacetyl)pyrrolidine-2-carboxamide], the pEC50 is 9.05.

`O=C(Nc1ccc(-c2cc3nc(NC(=O)[C@@H]4CCCN4C(=O)Cc4ccccc4)ccc3[nH]2)cc1)[C@@H]1CCCN1C(=O)Cc1ccccc1` [Example 2, (2S)-1-(phenylacetyl)-N-{2-[4-({[(2S)-1-(phenylacetyl)pyrrolidin-2-yl]carbonyl}amino)phenyl]-1H-pyrrolo[3,2-b]pyridin-5-yl}pyrrolidine-2-carboxamide] had a pEC50 of 8.05.

The molecule `O=C(Nc1ccc(-c2cc3cc(NC(=O)[C@@H]4CCCN4C(=O)[C@@H](c4ccccc4)N4CCCCC4)ccc3[nH]2)cc1)[C@@H]1CCCN1C(=O)[C@@H](c1ccccc1)N1CCCCC1` [Example 60, (2S)-1-[(2R)-2phenyl-2-(piperidin-1-yl)acetyl]-N-(4-{5-[({(2S)-1-[(2R)-2-phenyl-2-(piperidin-1-yl)acetyl]pyrrolidin-2-yl}carbonyl)amino]-1H-indol-2-yl}phenyl)pyrrolidine-2-carboxamide] showed a pEC50 of 9.89.

Molecule `COC(=O)N[C@H](C(=O)N1CCC[C@H]1C(=O)Nc1ccc2[nH]c(-c3ccc(-c4cnc([C@@H]5CCCN5C(=O)[C@@H](NC(=O)OC)C(C)C)[nH]4)cc3)cc2c1)C(C)C` [Example 116, N-(methoxycarbonyl)-L-valyl-N-{2-[4-(2-{(2S)-1-[N-(methoxycarbonyl)-L-valyl]pyrrolidin-2-yl}-1H-imidazol-5-yl)phenyl]-1H-indol-5-yl}-L-prolinamide] gave a pEC50 of 10.19.

In the case of `CN(C)[C@H](C(=O)N1CCC[C@H]1C(=O)Nc1ccc2[nH]c(-c3ccc(-c4cnc([C@@H]5CCCN5C(=O)[C@H](c5ccccc5)N(C)C)[nH]4)cc3)cc2c1)c1ccccc1` [Example 103, 1-[(2S)-2-(dimethylamino)-2-phenylacetyl]-N-{2-[4-(2-{(2S)-1-[(2S)-2-(dimethylamino)-2-phenylacetyl]pyrrolidin-2-yl}-1H-imidazol-5-yl)phenyl]-1H-indol-5-yl}-L-prolinamide], the pEC50 is 8.24.

Molecule `CN(C)[C@@H](C(=O)N1CCC[C@H]1C(=O)Nc1ccc2c(c1)CCc1c-2[nH]c2ccc(NC(=O)[C@@H]3CCCN3C(=O)[C@@H](c3ccccc3)N(C)C)cc12)c1ccccc1` [Example 94, (2S,2′S)-N,N′-6,11-dihydro-5H-benzo[a]carbazole-3,8-diylbis{1-[(2R)-2-(dimethylamino)-2-phenylacetyl]pyrrolidine-2-carboxamide}] had a pEC50 of 11.22.

`O=C(Nc1ccc(-c2[nH]c3ccc(NC(=O)[C@@H]4CCCN4C(=O)Cc4ccccc4)cc3c2F)cc1)[C@@H]1CCCN1C(=O)Cc1ccccc1` [Example 129, (2S)-N-{4-[3-fluoro-5-({[(2S)-1-(phenylacetyl)pyrrolidin-2-yl]carbonyl}amino)-1H-indol-2-yl]phenyl}-1-(phenylacetyl) pyrrolidine-2-carboxamide]: the negative-log EC50 (pEC50) was 9.15.

Take `O=C(Nc1ccc2[nH]c(-c3cc4cc(NC(=O)[C@@H]5CCCN5C(=O)Cc5ccccc5)ccc4[nH]3)cc2c1)[C@@H]1CCCN1C(=O)Cc1ccccc1` [Example 39, (2S,2′S)—N,N′,1H,1′H-2,2′-biindole-5,5′-diylbis[1-(phenylacetyl)pyrrolidine-2-carboxamide]]: the pEC50 is 9.62.

Molecule `O=C(Nc1ccc(-c2cc3cc(NC(=O)[C@@H]4CCCN4C(=O)[C@@H](c4ccccc4)N4CCCC4)ccc3[nH]2)cc1)[C@@H]1CCCN1C(=O)[C@@H](c1ccccc1)N1CCCC1` [Example 45, (2S)-1-[(2R)-2-phenyl-2-(pyrrolidin-1-yl)acetyl]-N-(4-{5-[({(2S)-1-[(2R)-2-phenyl-2-(pyrrolidin-1-yl)acetyl]pyrrolidin-2-yl}carbonyl)amino]-1H-indol-2-yl}phenyl) pyrrolidine-2-carboxamide] gave a pEC50 of 10.70.

Molecule `CC(=O)Nc1ccc(-c2cc3cc(NC(=O)[C@@H]4CCCN4C(=O)[C@H](NC(=O)OC(C)(C)C)c4ccccc4)ccc3o2)cc1` [Example 19, N-{2-[4-(acetylamino)phenyl]-1-benzofuran-5-yl}-1-{(2R)-2-[(tert-butoxycarbonyl)amino]-2-phenylacetyl}-L-prolinamide] gave a pEC50 of 7.60.

As for `CC(C)(C)OC(=O)N[C@@H](C(=O)N1CCC[C@H]1C(=O)Nc1ccc2[nH]c(-c3ccc4[nH]c([C@@H]5CCCN5C(=O)[C@H](NC(=O)OC(C)(C)C)c5ccccc5)nc4c3)cc2c1)c1ccccc1` [Example 125, tert-butyl [(1R)-2-{(2S)-2-[(2-{2-[(2S)-1-{(2R)-2-[(tert-butoxycarbonyl)amino]-2-phenylacetyl}pyrrolidin-2-yl]-1H-benzimidazol-5-yl}-1H-indol-5-yl)carbamoyl]pyrrolidin-1-yl}-2-oxo-1-phenylethyl]carbamate], the pEC50 was 10.80.

For `CC(C)(C)CC(=O)N[C@H](C(=O)N1CCC[C@H]1C(=O)Nc1ccc2c(c1)CCc1c-2[nH]c2ccccc12)c1ccccc1` [Example 96, N-(6,11-dihydro-5H-benzo[a]carbazol-3-yl)-1-{(2S)-2-[(3,3-dimethylbutanoyl)amino]-2-phenylacetyl}-L-prolinamide], the negative-log EC50 (pEC50) was 10.82.

`CC(C)(C)OC(=O)N[C@@H](C(=O)N1CCC[C@H]1C(=O)Nc1ccc2[nH]c(-c3ccc(-c4cnc([C@@H]5CCCN5C(=O)OCc5ccccc5)[nH]4)cc3)cc2c1)c1ccccc1` [Example 100, benzyl (2S)-2-[5-(4-{5-[(1-{(2R)-2-[(tert-butoxycarbonyl)amino]-2-phenylacetyl}-L-prolyl)amino]-1H-indol-2-yl}phenyl)-1H-imidazol-2-yl]pyrrolidine-1-carboxylate] had a negative logarithm of the EC50 (pEC50) of 10.51.

Molecule `CC(C)(C)OC(=O)N[C@@H](C(=O)N1CCCC1C(=O)Nc1ccc2[nH]c(-c3cc4cc(NC(=O)[C@@H]5CCCN5C(=O)[C@H](NC(=O)OC(C)(C)C)c5ccccc5)ccc4[nH]3)cc2c1)c1ccccc1` (stereo partly drawn) [Example 40] showed a pEC50 of 10.59.

On to `CC(C)(C)OC(=O)N[C@@H](C(=O)N1CCC[C@H]1C(=O)Nc1ccc2[nH]c(-c3ccc(N4CCCC4=O)cc3)c(F)c2c1)c1ccccc1` [Example 138, tert-butyl {(1R)-2-[(2S)-2-({3-fluoro-2-[4-(2-oxopyrrolidin-1-yl)phenyl]-1H-indol-5-yl}carbamoyl)pyrrolidin-1-yl]-2-oxo-1-phenylethyl}carbamate], for which the pEC50 is 8.07.

With `CC(C)OC(=O)N[C@@H](C(=O)N1CCC[C@H]1C(=O)Nc1ccc2[nH]c(-c3ccc(-c4ncc([C@@H]5CCCN5C(=O)[C@H](NC(=O)OC(C)C)c5ccccc5)[nH]4)cc3)cc2c1)c1ccccc1` [Example 119, propan-2-yl [(1R)-2-oxo-1-phenyl-2-{(2S)-2-[2-(4-{5-[({(2S)-1-[(2R)-2-phenyl-2-{[(propan-2-yloxy)carbonyl]amino}acetyl]pyrrolidin-2-yl}carbonyl)amino]-1H-indol-2-yl}phenyl)-1H-imidazol-5-yl]pyrrolidin-1-yl}ethyl]carbamate], the pEC50 is 10.89.

With `O=C(Nc1ccc(-c2[nH]c3ncc(NC(=O)[C@@H]4CCCN4C(=O)Cc4ccccc4)cc3c2Cl)cc1)[C@@H]1CCCN1C(=O)Cc1ccccc1` [Example 6, (2S)—N-{3-chloro-2-[4-({[(2S)-1-(phenylacetyl)pyrrolidin-2-yl]carbonyl}amino)phenyl]-1H-pyrrolo[2,3-b]pyridin-5-yl}-1-(phenylacetyl)pyrrolidine-2-carboxamide], the pEC50 is 6.70.

The assay is the same for the next values; noted with them: genotype 1b replicon cells, 24 to 72 hours incubation, luciferase activity.
As to `CN(C)[C@@H](C(=O)N1CCC[C@H]1C(=O)Nc1ccc2[nH]c(-c3nc4cc(NC(=O)[C@@H]5CCCN5C(=O)[C@@H](c5ccccc5)N(C)C)ccc4o3)cc2c1)c1ccccc1` [Example 190, (2S)-1-[(2R)-2-(dimethylamino)-2-phenylacetyl]-N-(2-{5-[({(2S)-1-[(2R)-2-(dimethylamino)-2-phenylacetyl]pyrrolidin-2-yl}carbonyl)amino]-1,3-benzoxazol-2-yl}-1H-indol-5-yl)pyrrolidine-2-carboxamide], the pEC50 was 10.17.

(Values after patent US11053243B2 (Merck Sharp & Dohme Corp., priority 2009, dated 2021).)
